Test results: patent US8603980B2, “Glutamate receptor antagonists and methods of use” (The Johns Hopkins University, priority 2007, dated 2013)
Entries after “also recorded” stand apart in the source; their conditions may differ. Where two headings read alike, the source gives them in different places.

Columns and labels:
human platelets = test: Platelet activation by FACS (PAC-1 antibody binding or surface P-selectin); format: cell-based; conditions: for AMPA mediated increase in TRAP induced platelet activation: substance added before AMPA, CNQX 100 μM, JST 1 μM
Procedure: It was next determined whether glutamate is a mediator of platelet activation.
Blood was collected into citrate anticoagulant, platelets were isolated as platelet rich plasma (PRP) by centrifugation at 180 g for 15 min, and then diluted in Tyrode's buffer 1:20 for activation flow cytometry studies. […] Washed platelets were resuspended in Tyrode's.

[1] = tested on: AMPA receptor subunits GluR1-4 and kainate receptor subunit GluR5; conditions: cited from earlier work
platelets [2] = test: Intracellular sodium in platelets (SBFI dye, FACS); format: cell-based, human; conditions: for Na+ level / influx in platelets treated with TRAP alone: amiloride 100 μM
Procedure: (§1) Human platelets were isolated from healthy volunteers who had not taken aspirin or NSAID within 10 d, under a protocol approved by The Johns Hopkins University School of Medicine Institutional Review Board (JCCI). Blood was collected into citrate anticoagulant, platelets were isolated as platelet rich plasma (PRP) by centrifugation at 180 g for 15 min, and then diluted in Tyrode's buffer 1:20 for activation flow cytometry studies. To determine surface GluR1, a Fc Blocking antibody was added to reduce non-specific background antibody binding. Mouse platelets were isolated by collection into heparinized Tyrode's buffer and isolated by centrifugation. Washed platelets were resuspended in Tyrode's. Intracellular ion concentrations were performed after incubating platelets diluted 1:20 in Tyrode's buffer with SBFI for 45 minutes prior to experiments.

platelets [3] = test: Platelet aggregation (aggregometer) in response to TRAP; format: cell-based, human; conditions: for final aggregation: exogenous addition
Procedure: as §1, with “The functional relevance of targeting platelet AMPAR signaling was assayed by first measuring aggregation in response to TRAP (10 μM) after incubating platelets with control or CNQX (1-100 μM). […] Human” for “Human”

megakaryocytes = test: Whole-cell recordings from freshly isolated megakaryocytes; format: cell-based, mouse
Procedure: All procedures using animals were approved by the University of Miyazaki Institutional Animal Care and Use Committee. Megakaryocyte preparation was performed as reported previously (43). Briefly, mouse bone marrow was flushed with Na+-rich external solution (Na+-ES, 150 mM NaCl, 1 mM CaCl2, and 10 mM HEPES, pH adjusted to 7.2 using NMDG-OH). Cells were dispersed by repetitive pipetting, washed three times by gentle centrifugation, resuspended in Na+-ES and used within 90 min of isolation.
Whole-cell recordings were obtained from freshly isolated megakaryocytes using an intracellular solution of the following composition: 150 mM CsCl, 1 mM ethylene glycol bis(-aminoethylether)-N,N,N′,N′-tetraacetic acid (EGTA) and 10 mM HEPES. The pH was adjusted to 7.3 using NMDG-OH. The patch-clamp procedures were similar to those described previously (43). Briefly, the experiments were performed in the tight seal whole-cell configuration at room temperature and electrical signals were acquired with an HEKA EPC-7 (Darmstadt, Germany). The pipette resistances ranged between 2 MΩ and 3 MΩ. Current-voltage relationships (I-V curves) were obtained by clamping the cell to different potentials in 30 mV increments (−30, 0 and +30 mV; each of 35 ms duration) from a holding potential of −60 mV. I-V curves obtained prior to the application of the agonists were subtracted from those (typically two) obtained in the presence of the agonists. The current responses were monitored on a chart recorder (WR7700, Graphtec, Tokyo, Japan) through a lowpass filter (200 Hz). Chemicals and reagents used were purchased from either Sigma (St. Louis, Mo.) or Wako Pure Chemicals (Osaka, Japan). […] The perfusion pipette was located within 30 μm of the cell and the puff pressure was adjusted to obtain rapid and effective agonist application (<10 msec).

[4] = Intravital microscopy of FeCl3 induced thrombosis in mesenteric arterioles; format: in vivo, mouse; conditions: for time to total vessel occlusion: FeCl3 injury
[5] = i.v. 20 mins before FeCl3, vs PBS
[6] = moderate TRAP (5 μM), platelets pre-incubated with substance

Procedure for Tail bleeding time: Mice were treated intravenously (i.v.) with control PBS or CNQX (0.1 mg/kg) and 20 mins later tail bleeding times were determined.
6 week old male mice were anesthetized with ketamine and xylazine (80/13 mg/kg) and injected i.v. with either PBS or CNQX:HBC, 0.1 mg/kg of active CNQX. Twenty minutes later the distal 3 mm of the tail was amputated, immersed in 37° C. saline and the time to visual cessation of bleeding recorded.

Structure (SMILES): O=C(O)C1CN(CCCP(=O)(O)O)CCN1 (racemic) [CPP, (±)-3-(2-Carboxypiperazin-4-yl)propyl-1-phosphonic acid]
- glutamate mediated increase in TRAP induced platelet activation (human platelets): does not inhibit

Structure (SMILES): N[C@@H](Cn1nc(Cl)c(=O)[nH]c1=O)C(=O)O [5-chloro-6-azawillardiine]
- selectivity for GluR4 over GluR1 and 2 ([1]; at the cost of selectivity for AMPA over kainate receptors): some selectivity

Structure (SMILES): Cc1onc(O)c1C[C@H](N)C(=O)O [AMPA, alpha(α)-amino-3-hydroxy-5-methyl-4-isoxazolepropionic acid]
- Na+ influx in response to TRAP after NHE inhibition (platelets [2]; AMPA added after amiloride (100 μM)): restores Na+ influx
- platelets aggregated at 1 min post-TRAP (platelets [3]; AMPA 1 mM pre-treatment): approximately 75%
- rate of early aggregation (platelets [3]; AMPA 1 mM, TRAP 10 μM): increases
- final aggregation (platelets [3]): no effect
- current on rapid application without cyclothiazide (megakaryocytes): did not induce a measurable current
- inward current following rapid perfusion (megakaryocytes): 8.6+/−4.5 pA
- reversal potential of the agonist-induced current (megakaryocytes): ~0 mV
- platelet activation in response to thromboxane mimetic U46619 (human platelets): increases platelet activation

Structure (SMILES): CC(C)(C)c1o[nH]c(=O)c1CC(N)C(=O)O (stereo not shown) [ATPA]
- platelet activation by FACS (human platelets): increases platelet activation

Structure (SMILES): N#Cc1cc2[nH]c(=O)c(=O)[nH]c2cc1[N+](=O)[O-] [CNQX, -cyano-7-nitroquinoxaline-2,3-dione]
- time to total vessel occlusion [4]: prolonged
- time to platelet adhesion (greater than 10 platelets adherent for greater than 10 sec) [4, 5]: prolonged
- time to thrombus formation (first stable thrombus greater than 20 μm) [4, 5]: prolonged
- Na+ concentration in platelets treated with AMPA and TRAP (platelets [2]; CNQX 100 μM): decreases Na+ concentrations
- Na+ level / influx in platelets treated with TRAP alone (platelets [2]; CNQX 100 μM): decreases Na+ levels
- selectivity for AMPAR subunits versus KA receptor subunits [1]: 20-150 fold
- platelet aggregation in response to TRAP (platelets [3]; TRAP 10 μM, CNQX 1-100 μM): dose dependently reduces platelet aggregation
- average tail bleeding time (Tail bleeding time; 0.1 mg/kg i.v., 20 mins before): approximately 600 sec
- AMPA induced inward current in presence of antagonist (megakaryocytes; CNQX 30 μM): blocked
- TRAP induced platelet activation at low antagonist concentration (human platelets; 10 μM CNQX): significantly decreases platelet activation
- TRAP induced platelet activation: P-selectin expression (human platelets; P-selectin by FACS): decreases platelet activation
- TRAP induced platelet activation (PAC-1 antibody binding) (human platelets; [6]): inhibits
- AMPA mediated increase in TRAP induced platelet activation (human platelets): inhibits the effects of AMPA

Structure (SMILES): NCCCNCCCCNCCC(=O)NCCCCCNC(=O)[C@H](CC(N)=O)NC(=O)Cc1ccc(O)cc1O [JST]
- AMPA mediated increase in TRAP induced platelet activation (human platelets): no effect

Structure (SMILES): C=C(C)[C@H]1CN[C@H](C(=O)O)[C@H]1CC(=O)O [KA, kainic acid]
- inward current following rapid perfusion (megakaryocytes; 100 μM, cyclothiazide in the recording solution): 3.1+/−0.9 pA
- current on rapid application without cyclothiazide (megakaryocytes; 0.1 or 1 mM, no cyclothiazide): did not induce a measurable current
- reversal potential of the agonist-induced current (megakaryocytes; I-V curves, cyclothiazide, no obvious rectification): ~0 mV
- TRAP induced platelet activation (PAC-1 antibody binding) (human platelets; [6]): dose dependently increases

Structure (SMILES): N[C@@H](Cn1ccc(=O)n(Cc2ccccc2C(=O)O)c1=O)C(=O)O [UBP302]
- time to total vessel occlusion [4]: prolonged time to total vessel occlusion
- bleeding time in mice (Tail bleeding time; mouse, in vivo): prolongs bleeding time
- platelet activation by FACS (human platelets): dose dependently reduces platelet activation

Structure (SMILES): N=C(N)NC(=O)c1nc(Cl)c(N)nc1N [amiloride]
- Na+ level / influx in platelets treated with TRAP alone (platelets [2]; CNQX 100 μM): reduces Na+ influx

Structure (SMILES): N[C@@H](CCC(=O)O)C(=O)O [glutamate]
- final aggregation (platelets [3]): no effect
- ATP mediated platelet activation (human platelets): not increased
- P2Y agonist 2-Me-ADP induced platelet activation (human platelets): increases
- TRAP induced platelet activation (PAC-1 antibody binding) (human platelets): significantly increases platelet activation; also recorded: dose dependently increases
- TRAP induced platelet activation: P-selectin expression (human platelets): increases agonist induced platelet activation
- collagen induced platelet activation (human platelets): no effect
- epinephrine induced platelet activation (human platelets): significantly increases
- increase in platelet activation following low concentration TRAP versus control (human platelets): approximately two times greater
- increase in platelet activation following low concentration thromboxane mimetic versus control (human platelets): approximately three times greater than control
- increase of TRAP induced platelet activation compared to control treated platelets (human platelets): greater than 50%
- platelet activation at high TRAP concentration (human platelets): no effect
- platelet activation in response to thromboxane mimetic U46619 (human platelets): dose dependently increases
- resting platelet activation (PAC-1 antibody binding) (human platelets): does not increase
